A short description of one series: solubility. Type of series: physicochemical. The method, then:
Aspect: solide P.F. : 83-85° C Solubilité : se dissout dans les solvants organiques usuels, tels que les alcools inférieurs par exemple méthanol, éthanol, les esters inférieurs, par exemple l'acétate d'éthyle ou encore dans l'éther éthylique et le chloroforme. Dans l'eau, la solubilité est de 44 % environ. αj25 : +45° (c = 0,03 n, méthanol)
Aspect : mousse blanche solide. P.F. 120-123° C Solubilité : se dissout dans les solvants organiques usuels, tels que les alcools inférieurs par exemple méthanol, éthanol, les esters inférieurs par exemple l'acétate d'éthyle ou encore dans l'éther éthylique et le chloroforme. Par contre, il est insoluble dans l'eau.

For a further series, the system named is Bacillus cereus. The experiment in a line: minimum inhibitory concentration, dilution method. Type of series: cell-based. The source says: Par exemple, on a décrit dans les brevets de l'Allemagne de l'Est Nos. 208 172 et 237 725 des complexes d'antibiotiques produits à partir de souches de Streptomyces hygroscopicus. Ces composés polyéthers sont caractérisés par une activité antibiotique importante et comparativement plus importante que celle présentée par la monensine ou la salinomycine. Par contre, l'abiérixine est douée d'activité antibiotique très faible par rapport à celle présentée par la plupart des ionophores polyéthers connus comme la monensine, la nigéricine ou la grisorixine. Par exemple, la concentration minimale inhibitrice de l'abiérixine vis-à-vis de Bacillus cereus déterminée selon la méthode de dilution est de 25 µg/ml mais de 0,05 µg/ml, 0,05 ug/ml et 3,12 gg/ml dans le cas respectivement de la monensine, de la nigéricine et de la grisorixine.

In the next series the test system is Eimeria tenella. Kind of series: anticoccidial test in cockerels inoculated with Eimeria tenella. The settings on record: for Lésion individuelle Moyenne: Reid lesion score; for IC de J - 2 à J + 8: feed conversion index; for EO x 10^3 Total: oocyst excretion J+4 to J+8; for EO %: oocyst excretion relative to CTNT; for P = poids moyen à J + 8: start weight 127 g. Type of series: in vivo. The text has this: Des tests ont été effectués de manière à montrer l'efficacité de l'abiérixine comme agent anticoccidien dans lesquels on a relevé les résultats zootechniques (poids, indice de consommation) et les symptômes […] de coccidiose (morbidité, mortalité, aspect des matières fécales, excrétion ookystale, lésions).
On a utilisé à cet effet le protocole expérimental suivant : • Animaux • - Coquelets de souche génétique Warren Sex Sal Link • - Age le jour de l'inoculation (J O) : 17 jours • - Age le jour de l'abattage (J +8) : 25 jours
Inoculum Dose : 300 000 oocystes sporulés d'Eimeria tenella
Alimentation • - Aliment utilisé : aliment type poulet de chair, 1er âge • - Anticoccidien utilisé : l'abiérixine à la dose de 40 ou 50 ppm/jour depuis J-2 jusqu'à J +8
Lots • - Nombre d'animaux par lot : 4 • - Répartition des lots : • NCNT : animaux non contaminés, non traités • CTNT : animaux contaminés, non traités • CTT, : animaux contaminés, traités avec 40 ppm d'abiérixine • CTT2 : animaux contaminés, traités avec 50 ppm d'abiérixine
Les critères • - Les gains de poids (GP) de J-2 à J +8 • - L'excrétion ookystale (EO) journalière de J+4 à J+8 • - La morbidité (M) notée de 0 à 4 • - L'aspect des fécès noté de 0 : fécès normales à 4 : fécès diarrhéiques ou hémorragiques (MF) • - La mortalité (M %) exprimée en pourcentage • - Les lésions (L) notées selon la notation de RFID (W. Malcolm REID, "A diagnostic chart of nine species of fowl coccidia - Georgia Agricultural Experiment Stations - Dec. 1964, Technical Bulletin N. S. 39) • - Les indices de consommation (IC)

Another series can be described thus: acute toxicity, oral. The settings on record: mouse, in vivo, souris, voie orale, read-out: toxicité aiguë DL50. The method, then:
On a trouvé, par exemple, que la toxicité aiguë DL50 de l'abiérixine chez la souris par voie orale est comprise entre 600 et 1000 mg/kg alors que, dans les mêmes conditions, la toxicité d'autres polyéthers polycycliques se révèle beaucoup plus importante, de l'ordre de 50 mg/kg (DL50 lonomycine : 50 mg/kg, complexe de monensine- : 43,8 mg/kg, salinomycine- : 50 mg/kg).

In another series the test system is flore ruménale. The experiment in a line: in vitro rumen flora fermentation, nitrogen use. Conditions: in the absence of protein nitrogen.
The conditions of series [1]: cited from earlier work.
The conditions of series [2]: mouse, in vivo; cited from earlier work.
The test system of series [3] is Streptomyces C.N.C.M.-I-321. Kind of series: sensitivity of producer strain to nigericin (MIC). In kind it is cell-based.
The subject of series [4] is Streptomyces hygroscopicus NRRL B 1865. The experiment in a line: sensitivity of producer strain to nigericin (MIC). Type of series: cell-based.
Series [5] concerns Streptomyces hygroscopicus NRRL 3602. The experiment in a line: sensitivity of producer strain to nigericin (MIC). In kind it is cell-based.
Setting [6] is: CTT1: 40 ppm, J + 6, score 0 to 4.
[7] abbreviates: CTT1: 40 ppm, J + 7, score 0 to 4.
Setting [8] is: CTT2: 50 ppm, J + 6, score 0 to 4.
[9] abbreviates: CTT2: 50 ppm, J + 7, score 0 to 4.
[10] abbreviates: souris, voie orale, comparison polyethers.

In brackets after ≈: the same amount, converted by molar mass. Where two headings read alike, the source gives them in different places.

With `COC1CC(CC(O)CCC(C)C=C(C)C(=O)O)OC2(OC(C)(C3CCC(C)(C4OC(C5OC(O)(CO)C(C)CC5C)CC4C)O3)CC2C)C1C` (stereo not shown) [abiérixine monohydratée], the “Solubilité dans les solvants organiques usuels” value in the series “solubility” (méthanol, éthanol, acétate d'éthyle, éther éthylique, chloroforme) is “se dissout”. In “solubility” (water, read-out: Solubilité dans l'eau), the solubility was approximately 440 mg/mL (≈ 607 mM).
`COC1CC(CC(O)CCC(C)C=C(C)C(=O)O)OC2(OC(C)(C3CCC(C)(C4OC(C5OC(O)(CO)C(C)CC5C)CC4C)O3)CC2C)C1C` (stereo not shown) [abiérixine]: in the series on Bacillus cereus (read-out: concentration minimale inhibitrice), the MIC came out at 25 µg/mL (≈ 0.0345 mM). Besides, the “croissance pondérale” value in the series on Eimeria tenella (40 ppm/jour for 10 days, cockerels infected with E. tenella) is listed as “augmente la croissance pondérale”. Further, the “M % (mortalité)” value with Eimeria tenella (CTT1: 40 ppm) and in the series with Eimeria tenella (CTT2: 50 ppm) was 0% in each case. Also, the “GP = gain de poids moyen de J - 2 à J + 8” value in the series with Eimeria tenella (CTT1: 40 ppm in feed J-2 to J+8) is given as 93 g; with Eimeria tenella (CTT2: 50 ppm in feed J-2 to J+8), 63 g. The “MF (aspect des fécès)” value is 4 with Eimeria tenella (CTT1: 40 ppm, J + 5, score 0 normal to 4 diarrhoeic or haemorrhagic); 1 in the series with Eimeria tenella (setting [6]); 0 in the series with Eimeria tenella (setting [7]); 3 in the series with Eimeria tenella (CTT2: 50 ppm, J + 5, score 0 normal to 4 diarrhoeic or haemorrhagic); 1 in the series on Eimeria tenella (setting [8]); 0 with Eimeria tenella (setting [9]). Further, the “M (morbidité)” value in the series with Eimeria tenella (CTT1: 40 ppm, J + 5, score 0 to 4) worked out at 3; with Eimeria tenella (setting [6]) it was 0; with Eimeria tenella (setting [7]) it was 0; in the series on Eimeria tenella (CTT2: 50 ppm, J + 5, score 0 to 4), 3; in the series on Eimeria tenella (setting [8]), 0; in the series on Eimeria tenella (setting [9]), 0. For the same molecule, the “Lésion individuelle Moyenne” value with Eimeria tenella (CTT1: 40 ppm) is given as 2,5; in the series on Eimeria tenella (CTT2: 50 ppm), 3,5. In addition, the “IC de J - 2 à J + 8” value is reported as 2,8 in the series with Eimeria tenella (CTT1: 40 ppm) and 3,35 in the series with Eimeria tenella (CTT2: 50 ppm). Further, the entries for the “EO x 10^3 Total” value in the series with Eimeria tenella (CTT1: 40 ppm) and in the series with Eimeria tenella (CTT2: 50 ppm) were 4165 x 10^3 and 2324 x 10^3, respectively. The EO % is 74,0% in the series with Eimeria tenella (CTT1: 40 ppm) and 41,3% with Eimeria tenella (CTT2: 50 ppm). Also, the “P = poids moyen à J + 8” value in the series on Eimeria tenella (CTT1: infected cockerels, 40 ppm in feed J-2 to J+8) amounted to 219 g; in the series with Eimeria tenella (CTT2: infected cockerels, 50 ppm in feed J-2 to J+8) it was 190 g. Also, the LD50 in the series “acute toxicity, oral” was 600 to 1000 mg/kg. Further, the “diminution de l'efficacité de la synthèse microbienne” value with flore ruménale was determined as 10%.
On to `CO[C@@H]1C[C@@H](C[C@H]2CC[C@H](C)C(C(C)C(=O)O)O2)O[C@]2(OC(C)(C3CCC(C)(C4O[C@@H]([C@H]5O[C@](C)(O)[C@H](C)C[C@@H]5C)C[C@@H]4C)O3)CC2C)[C@@H]1C` (stereo partly shown) [grisorixine], for which the concentration minimale inhibitrice with Bacillus cereus is 3,12 gg/ml.
Turning to `CC[C@@H](C(=O)[C@@H](C)[C@@H](O)[C@H](C)[C@@H]1O[C@@H]([C@@H](CC)C(=O)O)CC[C@@H]1C)[C@H]1O[C@]2(C=C[C@@H](O)[C@]3(CC[C@@](C)([C@H]4CC[C@](O)(CC)[C@H](C)O4)O3)O2)[C@H](C)C[C@@H]1C` [salinomycine], the DL50 in [1] (mouse, in vivo, po) was 50 mg/kg; in series [2], 18 mg/kg.
Regarding `COC1CC(CC(O)CCC(C)C=C(C)C(=O)O)OC2(OC(C)(C3CCC(C)(C4OC(C5OC(O)(CO)C(C)CC5C)CC4C)O3)CC2C)C1C` (stereo not shown) [sel de sodium de l'abiérixine], the “Solubilité dans l'eau” value in “solubility” (water, in words) is reported as “insoluble”.
Take complexe de monensine: in series [1] (setting [10]), the DL50 is on record as 43,8 mg/kg.
As for lonomycine, the DL50 in [1] (setting [10]) is given as 50 mg/kg.
In the case of nigéricine, in the series on Bacillus cereus, the concentration minimale inhibitrice is recorded as 0,05 ug/ml. Also, the “Sensibilité à la nigéricine (C.M.I)” value in series [3], in series [4] and in series [5] was more than 500 µg/mL throughout. Further, the “diminution de l'efficacité de la synthèse microbienne” value in the series on flore ruménale is recorded as more than 30%.
